According to ChEMBL document CHEMBL5137114, “Discovery of IHMT-MST1-58 as a Novel, Potent, and Selective MST1 Inhibitor for the Treatment of Type 1/2 Diabetes” (J Med Chem, 2022):
pIC50: −log10 of the molar value.

Tests used:
[1] = Oral bioavailability in Sprague-Dawley rat at 10 mg/kg measured up to 24 hrs by LC-MS/MS analysis; type: ADME, organism-based; details: in vivo
[2] = Cmax in Beagle dog at 10 mg/kg, po measured up to 24 hrs by LC-MS/MS analysis; type: ADME, organism-based, Canis lupus familiaris; parameters: time < 24 hrs, dose 10 mg/kg, route po; details: in vivo
[3] = target: T1, Serine/threonine-protein kinase 3 (Homo sapiens, UniProt Q13188); assay: Inhibition of recombinant full length N-terminal GST -tagged human MST2 expressed in baculovirus infected Sf9 insect cells using KKSRGDYMTMQIG as substrate incubated for 1 hr in presence of ATP by ADP-Glo luminescent assay
T1 sequence (Q13188 whole entry): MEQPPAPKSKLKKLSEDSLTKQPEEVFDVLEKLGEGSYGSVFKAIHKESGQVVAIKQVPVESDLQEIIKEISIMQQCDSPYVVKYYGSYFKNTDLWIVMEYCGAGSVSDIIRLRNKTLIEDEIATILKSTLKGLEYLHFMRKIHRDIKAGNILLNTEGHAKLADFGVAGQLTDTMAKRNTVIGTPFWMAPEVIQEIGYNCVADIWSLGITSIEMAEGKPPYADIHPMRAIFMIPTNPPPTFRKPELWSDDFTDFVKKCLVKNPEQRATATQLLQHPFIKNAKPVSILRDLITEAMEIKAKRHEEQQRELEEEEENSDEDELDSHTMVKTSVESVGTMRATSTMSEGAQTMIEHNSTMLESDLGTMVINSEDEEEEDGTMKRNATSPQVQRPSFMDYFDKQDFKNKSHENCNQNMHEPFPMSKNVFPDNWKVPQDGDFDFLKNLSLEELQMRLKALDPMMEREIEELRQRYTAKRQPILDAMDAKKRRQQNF

[4] = Cmax in Beagle dog at 1 mg/kg, iv measured up to 12 hrs by LC-MS/MS analysis; type: ADME, organism-based, Canis lupus familiaris; parameters: dose 1 mg/kg, time < 12 hrs, route iv; details: in vivo
[5] = Cmax in Sprague-Dawley rat at 10 mg/kg, po measured up to 24 hrs by LC-MS/MS analysis; type: ADME, organism-based; parameters: dose 10 mg/kg, time < 24 hrs, route po; details: in vivo
[6] = Toxicity in high fat diet-STZ-induced C57BL/6J mouse model of type 2 diabetes assessed as effect on pancreas morphology at 250 mg/kg, po qd in presence of metformin by H and E staining based analysis; type: organism-based; details: in vivo
[7] = target: T2, Serine/threonine-protein kinase Nek3 (Homo sapiens, UniProt P51956); assay: Inhibition of recombinant full length N-terminal GST -tagged human NEK3 expressed in baculovirus expression system using S2 as substrate incubated for 2 hrs by HTRF assay
T2 sequence (P51956 whole entry): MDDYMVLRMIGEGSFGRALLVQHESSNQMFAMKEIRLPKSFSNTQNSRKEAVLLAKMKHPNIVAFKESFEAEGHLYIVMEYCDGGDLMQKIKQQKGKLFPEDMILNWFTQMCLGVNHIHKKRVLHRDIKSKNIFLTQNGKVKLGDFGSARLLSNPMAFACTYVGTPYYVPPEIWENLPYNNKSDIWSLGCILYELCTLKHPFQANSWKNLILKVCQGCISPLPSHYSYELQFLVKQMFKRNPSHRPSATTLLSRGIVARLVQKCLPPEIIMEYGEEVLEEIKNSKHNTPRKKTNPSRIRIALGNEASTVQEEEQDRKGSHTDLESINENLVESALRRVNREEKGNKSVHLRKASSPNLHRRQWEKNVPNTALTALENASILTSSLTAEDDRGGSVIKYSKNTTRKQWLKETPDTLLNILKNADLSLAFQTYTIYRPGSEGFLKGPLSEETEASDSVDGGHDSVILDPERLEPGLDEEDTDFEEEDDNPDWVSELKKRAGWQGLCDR

Mus musculus = assay: Antidiabetic activity in multi low dose STZ-induced C57BL/6J mouse model of type 1 diabetes assessed as reduction in HbA1c level at 50 mg/kg, po qd administered in presence of metformin (reference value: 7.6 %); type: functional; parameters: scale not given: the % may be the effect or the level left

- F [1]: 73.3%
- Cmax [2]: 1110 ng/mL
- pIC50 [3]: 6.19
- Cmax [4]: 467 ng/mL
- Cmax [5]: 1720 ng/mL
- pIC50 [7]: < 5.00
SMILES: Cc1ccccc1C1C(=O)N(C)c2cnc(Nc3ccc(S(N)(=O)=O)cc3)nc2N1C (stereo not drawn)
- Activity [6]: Non-Toxic
- Activity (Mus musculus): 6.1%
